Results published in patent US8642559B2, “C-terminal domain truncation of mGluR1α by calpain and uses thereof” (priority 2006, dated 2014).
One block for each compound: values may come before it. Where a SMILES comes first, the peptide text is derived from it. The star is where a group is joined. Cbz = O=C(OCc1ccccc1)*

Experiments:
hippocampal neurons = assay: Kainic acid-induced neuronal damage (silver staining) and seizures in mice; format: in vivo; details: kainic acid 30 mg/kg s.c., mice, 7 days, silver staining
Experimental: (§1) The tat-peptide was injected i.p. 90 min before kainic acid injection. Note that the peptide had no effect on seizure intensity (bottom left).
They were sacrificed after 7 days and brains processed for silver staining, a marker of cell damage. Note the heavy labeling of the pyramidal cell layer in the KA alone group.
The effect of the tat-mGluR1 peptide on kainic acid-induced neuronal damage was also evaluated.

mGluR1α [1] = assay: In vivo truncation of mGluR1α in hippocampus after kainic acid injection; details: kainic acid 30 mg/kg s.c., mice
Experimental: as §1
The objective of this set of experiments was to verify that the feedback mechanism of the present invention could take place in vivo and participate in excitotoxicity. We used the kainic acid model of excitotoxicity, as this model has been widely used to study the mechanisms underlying in vivo excitotoxicity (Wang et al. Mol Neurobiol 31:3-16, 2005). Mice were injected with kainic acid and sacrificed at different times after injection. Levels of mGluR1α were determined in hippocampus with both Western blots and immunohistochemistry (FIG. 10).

spectrin = assay: NMDA-induced calpain-specific spectrin degradation (145 kD fragment) in cortical neurons; format: cell-based; details: NMDA 10 μM, 1 h
Experimental: In this set of experiments, we determined which protease(s) mediated NMDA-induced truncation of mGluR1α. […] Cortical neurons were pretreated with a calpain inhibitor, the cell-permeable calpain-inhibitor III, or the caspase inhibitor cpm-VAD-CHO for 2 hours and then incubated in the absence or presence of 100 M NMDA for 1 hour. […] To further confirm calpain activation by NMDA under our experimental conditions, we determined the levels of the calpain-specific spectrin degradation fragments.

mGluR1α [2] = assay: Glutamate/NMDA-induced C-terminal truncation of mGluR1α in cultured cortical neurons (immunoblot); format: cell-based; details: for block of glutamate-induced truncation of mGluR1α: glutamate 100 μM, antagonist 100 μM
From the text: Total cell lysates were separated by SDS-PAGE and probed with an antibody against the carboxyl terminus (residue 1142-1160) of mGluR1α. […] Total cell lysates were probed with an anti-myc antibody. […] Total cell lysates were probed with antibodies against mGluR5, G1uR2/3 and VGluT1 respectively.
Total cell lysate was collected immediately after treatment and subjected to SDS-PAGE and immunoblotting with an antibody against the carboxyl terminus (residues 1142-1160) of mGluR1α (FIG. 2A). […] Neurons were transfected with a calcium phosphate precipitation method modified for high transfection rate (Jian et al., Gene Ther 11:1301-1311, 2004).
Cortical neurons were treated with NMDA at the indicated concentrations for 1 h or treated with NMDA (10 μM) for the indicated times. Total cell lysates were separated by SDS-PAGE and probed with antibodies against mGluR1α1142-1160, Results were normalized over control values and are means±s.e.m. of 4 experiments.
To determine whether activation of mGluR1α itself was required for the truncation, two distinct mGluR1α antagonists were applied.
To further characterize NMDA-induced mGluR1α truncation, the concentration- and time-dependencies of the effects of NMDA were studied. Cortical neurons were first incubated with different concentrations of NMDA for a fixed period of time (1 hour) (FIG. 3F). […] In a following experiment, cortical neurons were incubated with 10 μM NMDA for different durations ranging from 1 to 60 min (FIG. 3G).
Cortical neurons were treated with NMDA (10 μM, 1 h). Total cell lysates were separated by SDS-PAGE and probed with antibodies against spectrin and mGluR1α1142-1160, respectively. Only the degradation bands of spectrin (spectrin DB, at ˜145 KD) are shown. […] In FIG. 4C, purified myc-mGluR1α was digested with μ-calpain at the indicated concentrations (U/ml) for 30 min. The digested material was processed for SDS-PAGE and subjected to silver staining or immunoblots with anti-myc or anti-mGluR1α1142-1160 antibodies. […] The 1st lane was the myc-mGluR1α immunoprecipitated from 293 cells; the 2nd and 3rd lanes were immunoprecipitated myc-mGluR1α digested with indicated concentration of calpain. […] FIG. 4F is the alignment of mGluR1 (902-941) and mGluR5 (889-927) surrounding the calpain cleavage site.
In this set of experiments, we determined which protease(s) mediated NMDA-induced truncation of mGluR1α. […] Cortical neurons were pretreated with a calpain inhibitor, the cell-permeable calpain-inhibitor III, or the caspase inhibitor cpm-VAD-CHO for 2 hours and then incubated in the absence or presence of 100 µM NMDA for 1 hour. […] To further confirm calpain activation by NMDA under our experimental conditions, we determined the levels of the calpain-specific spectrin degradation fragments.

cortical neurons = assay: NMDA/DHPG neuronal toxicity in cortical neurons (EthD-1/Calcein AM live/dead); format: cell-based; details: 100 μM LY367385 co-applied with 100 μM DHPG
From the text: In FIGS. 8a and b, cortical neurons were co-transfected with green fluorescent protein (GFP) and vector DNA, myc-mGluR1α or myc-mGluR1α936Δ, respectively. […] Twelve hours later, neurons were stained with EthD-1 to label dead cells. Arrowheads in FIG. 8a indicate EthD-1 positive GFP-expressing neurons. * p<0.05. FIGS. 8c and d are representative photos and bar graphs showing differential roles of endogenous mGluR1 in neuronal toxicity before and after NMDA-induced truncation. Cortical neurons were treated as indicated and were stained with EthD-1 (for dead cells) and calcein AM (for live cells) 24 hours later. * p<0.001.
We then tested whether calpain-mediated truncation of endogenous mGluR1α also alters its roles in excitotoxicity. We used NMDA to elicit mGluR1α truncation and evaluated the roles of mGluR1 in neuronal toxicity by applying DHPG before and after truncation. Fourteen DIV cortical neurons cultured on 18×18 mm coverslips were divided into 6 groups, which received the following treatments, respectively: 1) “Control”: vehicle; 2) “NMDA”: 100 μM NMDA for 1 hour; 3) “DHPG before NMDA”: DHPG, 100 μM, for 1 hour, followed by 100 μM NMDA for 1 hour; 4) “DHPG after NMDA”: NMDA, 100 μM, for 1 hour, followed by 100 μM DHPG for 1 hour; 5) “DHPG+LY before NMDA”: 100 μM DHPG was co-applied with 100 μM LY367385 for 1 hour and followed by 100 μM NMDA for 1 hour; 6) “DHPG+LY after NMDA”: NMDA 100 μM for 1 hour, followed by 100 μM DHPG co-applied with 100 μM LY367385. Twenty-four hours after treatment, all neurons were stained for 20 minutes with 0.5 μM EthD-1 to label dead cells and 2 μM Calcein AM to label live cells. After three washes with culture medium, coverslips were mounted and one microscopy photo was immediately taken from the center area of each coverslip. EthD-1 and Calcein AM positive cells on each photo were then counted. The percentage of cell death was calculated as the number of EthD-1 positive cell/(number of EthD-1 positive cell+number of Calcein AM positive cell)*100%.

Phospho Akt (Ser473) = assay: Akt phosphorylation (Ser473) in cortical neurons (Western blot); format: cell-based; details: DHPG 50 μM, 10 min in presence of LY367385
Experimental: Representative current traces recorded from HEK293 cells transfected with either myc-mGluR1α (left panel) or myc-mGluR1α936Δ (right panel) and GIRK1, GIRK2 (top) or TRPC1 (bottom). DHPG (100 μM in extracellular solution) was applied using a fast perfusion system for the duration indicated by the scale bars. Each trace is the average of 5 continuous sweeps. The bar graphs represent the means±S.E.M. of DHPG-induced current amplitude recorded in cells transfected with myc-mGluR1α or myc-mGluR1α936Δplus GIRK1, GIRK2 (top right) or TRPC1 (bottom right) (n=3-7). In FIG. 6B, cortical neurons were pre-treated with NMDA (50 1μM, 1 h). Two hours after washing NMDA, neurons were treated with the mGluR1 agonist DHPG (50 μM) for 10 min in the absence or presence of LY367385. Total cell lysates were collected and probed with anti-Phospho Akt (Ser473) antibody. Without pretreatment with NMDA, DHPG increased the levels of Phospho-Akt (* p<0.05), an effect blocked by LY367385.
As reported in previous studies, mGluR1 activation can stimulate the PI3K-Akt signaling pathway through the mGluRI-Homer-PIEL-PI3K signaling complex. Since the Homer-binding domain of mGluR1α is located in the extreme C-terminus, which is removed after calpain-mediated truncation, it was interesting to determine whether this signaling mechanism remained functional. We first induced mGluR1α truncation by treating cortical neurons with 50 μM NMDA for 1 hour. Two hours after washing out NMDA, neurons were incubated with the mGluRI agonist DHPG (50 μM) for 10 min. Neurons were then lysed and levels of phosphorylated Akt were determined on Western blots. Consistent with a previous study, in cortical neurons that were not pre-treated with NMDA, DHPG induced an increase in phosphorylated Akt levels (p<0.05, n=4, Student's t-test for Control vs. DHPG), an effect which was blocked by the mGluR1 selective antagonist LY367385 (p<0.05, n=4, for DHPG+LY367385 vs. DHPG) (FIG. 6B). […] Thus, mGluR1α-PI3K-Akt signaling pathway was disrupted by calpain-mediated mGluR1α truncation.

SMILES: C=C(C)[C@H]1CN[C@H](C(=O)O)[C@H]1CC(=O)O [kainic acid]
neuronal damage in hippocampal pyramidal neurons (hippocampal neurons): marked damage
mGluR1 truncation in hippocampus following kainic acid injection (mGluR1α [1]): rapidly truncated

block of NMDA-mediated spectrin degradation (spectrin; ifenprodil 10 μM): blocked
SMILES: CC(C(O)c1ccc(O)cc1)N1CCC(Cc2ccccc2)CC1 (stereo not shown) [ifenprodil]
block of NMDA-induced truncation of mGluR1α (mGluR1α [2]; NMDA 10 μM, 1 h, ifenprodil 10 μM): selectively blocked

block of NMDA-mediated spectrin degradation (spectrin; NVP-AAM077 0.4 μM): not
SMILES: C[C@H](NC(c1cccc2[nH]c(=O)c(=O)[nH]c12)P(=O)(O)O)c1ccc(Br)cc1 (stereo partly shown) [NVP-AAM077]
block of NMDA-induced truncation of mGluR1α (mGluR1α [2]; NMDA 10 μM, 1 h, NVP-AAM077 0.4 μM): not

SMILES: N[C@@H](CCCP(=O)(O)O)C(=O)O [APV]
block of glutamate-induced truncation of mGluR1α (mGluR1α [2]; 1 h): completely blocked

SMILES: CC(C)[C@H](NC(=O)OCc1ccccc1)C(=O)N[C@H](C=O)Cc1ccccc1 [calpain inhibitor III] (Cbz-Val-Phe-aldehyde)
block of NMDA-induced truncation of mGluR1α (mGluR1α [2]; inhibitor pretreatment 2 hours, then NMDA 100 μM 1 h, Calpi3 10 μM): significantly blocked

SMILES: Cc1cc(C(=O)O)ccc1[C@H](N)C(=O)O [LY367385]
block of the neuroprotective effect of DHPG before NMDA (cortical neurons): completely blocked
block of the neurotoxic effect of DHPG after NMDA (cortical neurons): completely blocked
block of glutamate-induced truncation of mGluR1α (mGluR1α [2]; 1 h): do not block
block of DHPG-induced increase in phosphorylated Akt (Phospho Akt (Ser473)): blocked

SMILES: N#Cc1cc2[nH]c(=O)c(=O)[nH]c2cc1[N+](=O)[O-] [CNQX]
block of glutamate-induced truncation of mGluR1α (mGluR1α [2]; 1 h): had no effect
